{"source": "patent US9845297B2", "about": "“Antimicrobial compounds and methods of making and using the same” (Melinta Therapeutics, Inc., priority 2009, dated 2017)", "data": [{"system": "Eschericia coli strain ATCC25922", "assay": "standard microdilution assay to determine minimum inhibitory concentrations (MICs)", "type": "cell-based", "conditions": "Escherichia coli, ATCC25922, Eschericia coli strain ATCC25922, standard microdilution assay; read-out: E. coli ATCC25922 MIC", "description": "(§1) Minimum inhibitory concentrations (MICs) are determined by the microdilution method, typically in a final volume of 100 microliters, according to protocols outlined by The Clinical and Laboratory Standards Institute [CLSI; formerly the National Committee for Clinical Laboratory Standards (NCCLS)]. See CLSI: Methods for dilution antimicrobial susceptibility tests for bacteria that grow aerobically; approved standard-fifth edition. Wayne, Pa.: NCCLS; 2000. The assays can be also be performed in microtiter trays according to conventional methodologies as published by the CLSI. See CLSI. Methods for Dilution Antimicrobial Susceptibility Tests for Bacteria That Grow Aerobically; Approved Standard-Seventh Edition. CLSI Document M7-A7 [ISBN 1-56238-587-9] CLSI, 940 West Valley Road, Suite 1400, Wayne Pa. 19087-1898 USA, 2006).\n(§2) The compounds of the present invention were tested for antimicrobial activity. The compounds were run against Eschericia coli strain ATCC25922 using a standard microdilution assay to determine minimum inhibitory concentrations (MICs). […] A “N/A” means that data is unavailable. It will be recognized by one skilled in the art that the compounds can be assessed against other bacterial organisms and that the presentation of data for activity against Eschericia coli is illustrative and in no way is intended to limit the scope of the present invention. The compounds of the present invention can be assayed against a range of other microorganisms depending upon the performance activity desired to be gathered. Furthermore, the “+”, “−”, and “N/A” representation and the selection of a cutoff value of 16 micrograms/ml is also illustrative and in no way is intended to limit the scope of the present invention.", "units": {"MIC": "µg/mL"}, "values": [{"compound": "CN(C(=O)C[C@@H](N)CCCNC(=N)N)C1CNC(NC(N)=O)=NC1=O", "note": "(stereo partly drawn) [Compound 100]", "MIC": "> 16"}, {"compound": "CN(C(=O)C[C@H](CCCNC(=N)N)NC(=O)CCCN)C1CNC(NC(N)=O)=NC1=O", "note": "(stereo partly drawn) [Compound 102]", "MIC": "> 16"}, {"compound": "CN(C(=O)C[C@H](CCCNC(=N)N)NC(=O)CCN)C1CNC(NC(N)=O)=NC1=O", "note": "(stereo partly drawn) [Compound 103]", "MIC": "> 16"}, {"compound": "CN(C(=O)C[C@H](CCCNC(=N)N)NC(=O)CCO)C1CNC(NC(N)=O)=NC1=O", "note": "(stereo partly drawn) [Compound 104]", "MIC": "> 16"}, {"compound": "CN(C(=O)C[C@H](CCCNC(=N)N)NC(=N)N)C1CNC(NC(N)=O)=NC1=O", "note": "(stereo partly drawn) [Compound 105]", "MIC": "> 16"}, {"compound": "CN(C(=O)C[C@H](CCCNC(=N)N)NCCCN)C1CNC(NC(N)=O)=NC1=O", "note": "(stereo partly drawn) [Compound 106]", "MIC": "< 16"}, {"compound": "CN(C(=O)C[C@H](CCCNC(=N)N)NC(=O)CCNC(=N)N)C1CNC(NC(N)=O)=NC1=O", "note": "(stereo partly drawn) [Compound 107]", "MIC": "> 16"}, {"compound": "CN(C(=O)C[C@H](CCCNC(=N)N)NC(=O)CCN1CCNCC1)C1CNC(NC(N)=O)=NC1=O", "note": "(stereo partly drawn) [Compound 108]", "MIC": "> 16"}, {"compound": "CN(C(=O)C[C@H](CCCNC(=N)N)NCCCCNC(=N)N)C1CNC(NC(N)=O)=NC1=O", "note": "(stereo partly drawn) [Compound 109]", "MIC": "< 16"}, {"compound": "CN(C(=O)C[C@@H](N)CCCNC(=N)N)C1CNC(NC(=O)c2ccc(NC(=O)[C@@](C)(N)CO)cc2)=NC1=O", "note": "(stereo partly drawn) [Compound 110]", "MIC": "< 16"}, {"compound": "CN(C(=O)C[C@H](CCCNC(=N)N)NC(=O)CCc1c[nH]cn1)C1CNC(NC(N)=O)=NC1=O", "note": "(stereo partly drawn) [Compound 111]", "MIC": "> 16"}, {"compound": "N=C(N)NCCC[C@H](N)CC(=O)N(CCCc1cocn1)C1CNC(NC(N)=O)=NC1=O", "note": "(stereo partly drawn) [Compound 112]", "MIC": "> 16"}, {"compound": "NCCC[C@H](N)CCCn1cnc(N)nc1=O", "note": "[Compound 113]", "MIC": "> 16"}, {"compound": "N=C(N)NCCC[C@H](N)CCCn1cnc(N)nc1=O", "note": "[Compound 114]", "MIC": "> 16"}, {"compound": "NCCCC[C@@H](N)CCn1ccc(N)nc1=O", "note": "[Compound 115]", "MIC": "> 16"}, {"compound": "NCCC[C@H](N)CCCn1ccc(N)nc1=O", "note": "[Compound 116]", "MIC": "> 16"}, {"compound": "N=C(N)NCCC[C@H](N)CCCn1ccc(N)nc1=O", "note": "[Compound 118]", "MIC": "> 16"}, {"compound": "Nc1ccn(CCC[C@@H](N)CCCOCc2ccccc2)c(=O)n1", "note": "[Compound 119]", "MIC": "> 16"}, {"compound": "N=C(N)NCCCCN[C@H](CCCCNC(=N)N)CCn1ccc(NC(N)=O)nc1=O", "note": "[Compound 120]", "MIC": "> 16"}, {"compound": "N=C(N)NCCC[C@H](N)CCCn1ccc(NC(N)=O)nc1=O", "note": "[Compound 121]", "MIC": "> 16"}, {"compound": "NCCC[C@H](N)CCCn1ccc(NC(N)=O)nc1=O", "note": "[Compound 122]", "MIC": "> 16"}, {"compound": "NC(=O)Nc1ccn(CCC[C@@H](N)CCCO)c(=O)n1", "note": "[Compound 123]", "MIC": "> 16"}, {"compound": "N=C(N)NCCCC[C@@H](N)CCn1ccc(NC(N)=O)nc1=O", "note": "[Compound 124]", "MIC": "> 16"}, {"compound": "N=C(N)NCCCC[C@H](CCn1ccc(NC(N)=O)nc1=O)NCCCN", "note": "[Compound 125]", "MIC": "> 16"}, {"compound": "N=C(N)NCc1ccc(-n2ccc(NC(N)=O)nc2=O)cc1", "note": "[Compound 126]", "MIC": "> 16"}, {"compound": "N=C(N)NCc1ccc(-n2ccc(N)nc2=O)cc1", "note": "[Compound 127]", "MIC": "> 16"}, {"compound": "NCCCCOc1nccc(N)n1", "note": "[Compound 128]", "MIC": "> 16"}, {"compound": "NCCCCn1ccc(N)nc1=O", "note": "[Compound 129]", "MIC": "> 16"}, {"compound": "N=C(N)NCCC[C@@H](CCCn1ccc(NC(N)=O)nc1=O)NCCCN", "note": "[Compound 130]", "MIC": "> 16"}, {"compound": "NCCCNCc1ccc(-n2ccc(NC(N)=O)nc2=O)cc1", "note": "[Compound 131]", "MIC": "> 16"}, {"compound": "NCCCNCc1ccc(-n2ccc(N)nc2=O)cc1", "note": "[Compound 132]", "MIC": "> 16"}, {"compound": "N=C(N)NCCC[C@H](N)CCCn1cnc(NC(N)=O)nc1=O", "note": "[Compound 133]", "MIC": "> 16"}, {"compound": "N=C(N)NCCCCN[C@@H](CCCNC(=N)N)CCCn1ccc(NC(N)=O)nc1=O", "note": "[Compound 134]", "MIC": "> 16"}, {"compound": "NCCC[C@H](N)CCCN1CCC(NC(N)=O)NC1=O", "note": "(stereo partly drawn) [Compound 135]", "MIC": "> 16"}, {"compound": "NC(=O)NC1CCN(CCC[C@@H](N)CCCO)C(=O)N1", "note": "(stereo partly drawn) [Compound 136]", "MIC": "> 16"}]}, {"system": "Eschericia coli strain ATCC25922", "assay": "standard microdilution assay to determine minimum inhibitory concentrations (MICs)", "type": "cell-based", "conditions": "Escherichia coli, ATCC25922, read-out: E. coli ATCC25922 MIC", "description": "as §1, §2", "units": {"MIC": "µg/mL"}, "values": [{"compound": "CN(C(=O)C[C@H](CCCNC(=N)N)NC(=O)CCCO)C1CNC(NC(N)=O)=NC1=O", "note": "(stereo partly drawn) [Compound 101]", "MIC": "> 16"}]}]}
